Experimental data from patent publication US7704995B2 (Exelixis, Inc., priority 2003, dated 2010).
Like-named read-outs stand apart in the source and are kept apart here.

Target: T1, Chk1 (Homo sapiens, UniProt O14757)
T1 construct: purchased Upstate Biotechnology
T1 sequence (O14757 1-476): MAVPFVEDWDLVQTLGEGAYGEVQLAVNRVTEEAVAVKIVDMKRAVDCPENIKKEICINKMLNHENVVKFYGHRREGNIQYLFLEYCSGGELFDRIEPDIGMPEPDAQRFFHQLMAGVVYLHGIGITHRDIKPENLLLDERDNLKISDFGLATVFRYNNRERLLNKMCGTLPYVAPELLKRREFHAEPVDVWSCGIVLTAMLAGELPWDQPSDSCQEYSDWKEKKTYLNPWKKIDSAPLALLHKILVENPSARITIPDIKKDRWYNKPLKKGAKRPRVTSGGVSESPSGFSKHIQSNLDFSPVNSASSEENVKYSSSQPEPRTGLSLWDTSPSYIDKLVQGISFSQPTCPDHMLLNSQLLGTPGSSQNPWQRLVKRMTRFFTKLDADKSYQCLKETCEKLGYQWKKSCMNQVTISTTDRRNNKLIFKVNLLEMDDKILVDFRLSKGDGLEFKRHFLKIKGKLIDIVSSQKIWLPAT
Assay: Chk1 kinase assay: incorporation of γ-33P ATP into immobilized myelin basic protein
Assay type: biochemical
Settings: read-out: Chk1 IC50
Summary of the method: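 Read-out is scintillation counting of 33P incorporated into plate-bound myelin basic protein. Chk1 runs at 10 nM enzyme with 10 μM ATP, Chk2 at 20 nM with 30 μM ATP, each for 1 hour at room temperature. Duplicate points; IC50 taken as 50% activity reduction, Ki computed from IC50.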

[1] = Table 11, Chk1 only, class symbols A-D

Structure (SMILES) | IC50 (Table 11, Chk1 only) | further results
CC(C)(C)c1ccc(CNC(=O)c2cccc(-c3cnc(N)c(C(=O)N[C@H]4CCCNC4)n3)c2)cc1 [Example 950, 3-amino-6-{3-[({[4-(1,1-dimethylethyl)phenyl]methyl}amino)carbonyl]phenyl}-N-[(3S)-piperidin-3-yl]pyrazine-2-carboxamide] |  | IC50 [1]: < 0.05 µM
Nc1ncc(-c2cccc(C(=O)N[C@H]3CCc4ccccc43)c2)nc1C(=O)N[C@@H]1CCNC1 [Example 645, 3-amino-6-(3-{[(1S)-2,3-dihydro-1H-inden-1-ylamino]carbonyl}phenyl)-N-[(3R)-pyrrolidin-3-yl]pyrazine-2-carboxamide] | 0.05 to 1 µM | 
CNC(=O)c1nc(-c2cccc(NC(=O)c3ccc(C#N)cc3)c2)cnc1N [Example 167, 3-amino-6-(3-{[(4-cyanophenyl)carbonyl]amino}phenyl)-N-methylpyrazine-2-carboxamide] |  | IC50: 0.05 to 1 µM
CNC(=O)c1nc(-c2cccc(CNc3ccc4ccccc4c3)c2)cnc1N [Example 452, 3-amino-N-methyl-6-{3-[(naphthalen-2-ylamino)methyl]phenyl}pyrazine-2-carboxamide] | 0.05 to 1 µM | 
CNC(=O)c1nc(-c2cccc(C(=O)NCc3c(F)cccc3Cl)c2)cnc1N [Example 171, 3-amino-6-[3-({[(2-chloro-6-fluorophenyl)methyl]amino}carbonyl)phenyl]-N-methylpyrazine-2-carboxamide] |  | IC50: 0.05 to 1 µM
CNC(=O)c1nc(-c2cccc(NC(=O)Cc3ccc(Cl)cc3Cl)c2)cnc1N [Example 209, 3-amino-6-(3-{[(2,4-dichlorophenyl)acetyl]amino}phenyl)-N-methylpyrazine-2-carboxamide] |  | IC50: < 0.05 µM
CC(C)(C)OC(=O)N1CCC[C@H](NC(=O)c2nc(-c3cccc(CN)c3)cnc2N)C1 [Example 841, 1,1-dimethylethyl (3S)-3-[({3-amino-6-[3-(aminomethyl)phenyl]pyrazin-2-yl}carbonyl)amino]piperidine-1-carboxylate] |  | IC50 [1]: 0.05 to 1 µM
COC(=O)CNC(=O)c1nc(-c2cccc(C(=O)NCc3ccccc3)c2)cnc1N [Example 576, methyl N-{[3-amino-6-(3-{[(phenylmethyl)amino]carbonyl}phenyl)pyrazin-2-yl]carbonyl}glycinate] | 1 to 10 µM | 
CNC(=O)c1nc(-c2cncc(C(=O)NCc3ccccc3-c3ccccc3)c2)cnc1N [Example 401, 3-amino-6-(5-{[(biphenyl-2-ylmethyl)amino]carbonyl}pyridin-3-yl)-N-methylpyrazine-2-carboxamide] |  | IC50: 0.05 to 1 µM
Nc1ncc(-c2cccc(C(=O)N[C@H]3CCc4ccccc43)c2)nc1C(=O)N[C@H]1CCN(C(=O)c2ccncc2)C1 [Example 649, 3-amino-6-(3-{[(1S)-2,3-dihydro-1H-inden-1-ylamino]carbonyl}phenyl)-N-[(3S)-1-(pyridin-4-ylcarbonyl)pyrrolidin-3-yl]pyrazine-2-carboxamide] | ≥ 10 µM | 
Nc1ncc(-c2cccc(CN[C@H]3CCCc4ccccc43)c2)nc1C(=O)N[C@H]1CCNC1 [Example 808, 3-amino-N-[(3S)pyrrolidin-3-yl]-6-(3-{[(1S)-1,2,3,4-tetrahydronaphthalen-1-ylamino]methyl}phenyl)pyrazine-2-carboxamide] |  | IC50 [1]: < 0.05 µM
C/C(=N\Nc1ccc(Cl)cc1)c1nc(-c2cccc(C(=O)NCc3ccccc3)c2)cnc1N [Example 603, 3-{5-amino-6-[(1E)-N-(4-chlorophenyl)ethanehydrazonoyl]pyrazin-2-yl}-N-(phenylmethyl)benzamide] | ≥ 10 µM | 
CNC(=O)c1nc(-c2cccc(-c3nc(-c4ccccc4)c[nH]3)c2)cnc1N [Example 442, 3-amino-N-methyl-6-[3-(4-phenyl-1H-imidazol-2-yl)phenyl]pyrazine-2-carboxamide] | 0.05 to 1 µM | 
CC(C)(C)OC(=O)N1CC[C@H](NC(=O)c2nc(-c3cccc(C(=O)N[C@H]4CCc5ccccc54)c3)cnc2N)C1 [Example 709, 1,1-dimethylethyl (3S)-3-({[3-amino-6-(3-{[(1S)-2,3-dihydro-1H-inden-1-ylamino]carbonyl}phenyl)pyrazin-2-yl]carbonyl}amino)pyrrolidine-1-carboxylate] | ≥ 10 µM | 
Nc1ncc(-c2cccc(C(=O)NCc3ccc(Cl)c(Cl)c3)c2)nc1C(=O)N[C@H]1CCNC1 [Example 826, 3-amino-6-[3-({[(3,4-dichlorophenyl)methyl]amino}carbonyl)phenyl]-N-[(3S)-pyrrolidin-3-yl]pyrazine-2-carboxamide] |  | IC50 [1]: < 0.05 µM
CNC(=O)c1nc(-c2cccc(C(=O)NCc3ccc(Cl)cc3Cl)c2)cnc1N [Example 100, 3-amino-6-[3-({[(2,4-dichlorophenyl)methyl]amino}carbonyl)phenyl]-N-methylpyrazine-2-carboxamide] |  | IC50: 0.05 to 1 µM
Nc1ncc(-c2cccc(CN[C@H]3CCc4ccccc43)c2)nc1C(=O)NC1CC1 [Example 548, 3-amino-N-cyclopropyl-6-(3-{[(1S)-2,3-dihydro-1H-inden-1-ylamino]methyl}phenyl)pyrazine-2-carboxamide] | 0.05 to 1 µM | 
CNC(=O)c1nc(-c2cccc(C(=O)NCC3CCN(Cc4ccccc4)CC3)c2)cnc1N [Example 200, 3-amino-N-methyl-6-{3-[({[1-(phenylmethyl)piperidin-4-yl]methyl}amino)carbonyl]phenyl}pyrazine-2-carboxamide] |  | IC50: ≥ 10 µM
CNC(=O)c1nc(-c2cccc(CNC(=O)c3ncccc3O)c2)cnc1N [Example 335, 3-amino-6-[3-({[(3-hydroxypyridin-2-yl)carbonyl]amino}methyl)phenyl]-N-methylpyrazine-2-carboxamide] |  | IC50: 0.05 to 1 µM
Nc1ncc(-c2cccc(C(=O)NCc3ccc(Cl)cc3)c2)nc1C(=O)N[C@H]1CCCNC1 [Example 861, 3-amino-6-[3-({[(4-chlorophenyl)methyl]amino}carbonyl)phenyl]-N-[(3S)-piperidin-3-yl]pyrazine-2-carboxamide] |  | IC50 [1]: < 0.05 µM
CNC(=O)c1nc(-c2cccc(C(=O)NCc3ccccc3SC)c2)cnc1N [Example 356, 3-amino-N-methyl-6-{3-[({[2-(methylthio)phenyl]methyl}amino)carbonyl]phenyl}pyrazine-2-carboxamide] |  | IC50: < 0.05 µM
Nc1ncc(-c2cccc(NC(=O)Cc3cccnc3)c2)nc1C(=O)N[C@H]1CCCNC1 [Example 980, 3-amino-N-[(3S)-piperidin-3-yl]-6-{3-[(pyridin-3-ylacetyl)amino]phenyl}pyrazine-2-carboxamide] |  | IC50 [1]: < 0.05 µM

The next lines start with results.

IC50 (Table 11, Chk1 only) | Structure (SMILES) | further results
1 to 10 µM | NC(=O)c1nc(-c2cccc(S(=O)(=O)N[C@H]3CCc4ccccc43)c2)cnc1N [Example 802, 3-amino-6-(3-{[(1S)-2,3-dihydro-1H-inden-1-ylamino]sulfonyl}phenyl)pyrazine-2-carboxamide] | 
< 0.05 µM | Nc1ncc(-c2cccc(C(=O)N[C@@H]3c4ccccc4C[C@@H]3O)c2)nc1-c1nnc([C@H]2CCCNC2)[nH]1 [Example 775, 3-(5-amino-6-{5-[(3S)-piperidin-3-yl]-4H-1,2,4-triazol-3-yl}pyrazin-2-yl)-N-[(1R,2S)-2-hydroxy-2,3-dihydro-1H-inden-1-yl]benzamide] | 
0.05 to 1 µM | Nc1ncc(-c2cccc(C(=O)NCc3ccccn3)c2)nc1C(=O)N[C@H]1CCNC1 [Example 761, 3-amino-6-(3-{[(pyridin-2-ylmethyl)amino]carbonyl}phenyl)-N-[(3S)-pyrrolidin-3-yl]pyrazine-2-carboxamide] | 
≥ 10 µM | CC(C)(C)OC(=O)N1CC[C@H](CNC(=O)c2nc(-c3cccc(C(=O)N[C@@H]4c5ccccc5C[C@@H]4O)c3)cnc2N)C1 [Example 786, 1,1-dimethylethyl (3R)-3-{[({3-amino-6-[3-({[(1R,2S)-2-hydroxy-2,3-dihydro-1H-inden-1-yl]amino}carbonyl)phenyl]pyrazin-2-yl}carbonyl)amino]methyl}pyrrolidine-1-carboxylate] | 
1 to 10 µM | CCN1CCCC(c2nnc(-c3nc(-c4cccc(CO)c4)cnc3N)[nH]2)C1 (stereo not drawn) [Example 732, (3-{5-amino-6-[5-(1-ethylpiperidin-3-yl)-4H-1,2,4-triazol-3-yl]pyrazin-2-yl}phenyl)methanol] | 
1 to 10 µM | CC(C)(C)OC(=O)N1CC[C@H](NC(=O)c2nc(-c3cccc(C(=O)NC4CCOc5ccccc54)c3)cnc2N)C1 (stereo partly drawn) [Example 759, 1,1-dimethylethyl (3S)-3-{[(3-amino-6-{3-[(3,4-dihydro-2H-chromen-4-ylamino)carbonyl]phenyl}pyrazin-2-yl)carbonyl]amino}pyrrolidine-1-carboxylate] | 
< 0.05 µM | Nc1ncc(-c2cccc(C(=O)N[C@@H]3c4ccccc4C[C@@H]3O)c2)nc1C(=O)NC1CCCNC1 (stereo partly drawn) [Example 766, 3-amino-6-[3-({[(1R,2S)-2-hydroxy-2,3-dihydro-1H-inden-1-yl]amino}carbonyl)phenyl]-N-piperidin-3-ylpyrazine-2-carboxamide] | 
0.05 to 1 µM | COc1ccc(CNC(=O)c2cccc(-c3cnc(N)c(C(=O)N[C@H]4CCNC4)n3)c2)cc1 [Example 743, 3-amino-6-{3-[({[4-(methyloxy)phenyl]methyl}amino)carbonyl]phenyl}-N-[(3S)-pyrrolidin-3-yl]pyrazine-2-carboxamide] | 
